Test systems include IGROV1 ovarian; HOP-92 NSCLC; M14 melanoma; HT29 colon; RXF 393 renal; OVCAR-4 ovarian; UO-31 renal.
Test in all cases: DTP human tumour cell line panel, 48 h

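Tested at 5 concentrations; 48 h exposure; 96-well plates; endpoints linearly interpolated, else capped at highest concentration. GI50 is the concentration that inhibits growth by half. The concentration for full growth arrest is given as TGI.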

`CCC[CH2][Sn]1([CH2]CCC)[O]CC(Cc2ccccc2)[O]1` (configuration not stated): the GI50 was 3.8 µM in the experiment with IGROV1 ovarian; 2.9 µM with HOP-92 NSCLC; 2.3 µM in the experiment on M14 melanoma; 4.43 µM with HT29 colon; 1.47 µM in the experiment on RXF 393 renal; 13.2 µM in the experiment with OVCAR-4 ovarian. Further, in the experiment on UO-31 renal, the GI50 was 6.17 µM. Also, the TGI in the experiment with IGROV1 ovarian is 13.8 µM; in the experiment on HOP-92 NSCLC, 8.67 µM; in the experiment on M14 melanoma it was 5.51 µM; with HT29 colon, 14.5 µM; in the experiment on RXF 393 renal it was 2.84 µM; in the experiment with OVCAR-4 ovarian, 26 µM. The compound also displayed a total growth inhibition concentration (TGI) with UO-31 renal of 19 µM.

In the case of `COC(=O)/C=C1/CCC(C(=O)OC)N1` (configuration not stated), the TGI in the experiment with IGROV1 ovarian, with HOP-92 NSCLC, in the experiment on M14 melanoma, in the experiment with RXF 393 renal, in the experiment on OVCAR-4 ovarian and with UO-31 renal was greater than 100 µM each time.

`COC(=O)N(C(=O)OC)C(C(=O)O)C(C)C` (configuration not stated): the TGI in the experiment on HOP-92 NSCLC, with M14 melanoma, with HT29 colon, in the experiment with RXF 393 renal, in the experiment on OVCAR-4 ovarian and with UO-31 renal was greater than 100 µM each time.

`CCCCCC[N+](C)(C)Cc1ccc(C[N+](C)(C)CCCCCC)cc1`: the TGI is 5.38 µM in the experiment on IGROV1 ovarian; 7.17 µM with HOP-92 NSCLC; 9.34 µM in the experiment with M14 melanoma; 16 µM with HT29 colon; greater than 100 µM in the experiment with OVCAR-4 ovarian; 29.8 µM in the experiment with UO-31 renal.

For the compound `CN(C)CC(C)(C)C(=O)/C=C/c1ccc(/C=C/C(=O)C(C)(C)CN(C)C)cc1`, the TGI in the experiment with IGROV1 ovarian was found to be 3.33 µM; with HOP-92 NSCLC it was 2.22 µM; in the experiment with M14 melanoma, 3.21 µM; in the experiment with HT29 colon, 1.77 µM; with RXF 393 renal, 2.66 µM; in the experiment with OVCAR-4 ovarian, 2.29 µM. Besides, the TGI in the experiment with UO-31 renal amounted to 3.49 µM.

On to `O=C(O)CCCCCCC[C@H]1S[C@H]1CCCCCCO`, for which the TGI in the experiment on IGROV1 ovarian, in the experiment on M14 melanoma, in the experiment on HT29 colon, with RXF 393 renal, in the experiment with OVCAR-4 ovarian and with UO-31 renal was greater than 100 µM throughout.

Turning to `[Cl-].[O-]/N=C(\c1ccccc1)c1ccccn1.[O-]/N=C(\c1ccccc1)c1ccccn1.[O-]/N=C(\c1ccccc1)c1ccccn1.[Sm+3]`, the GI50 in the experiment on IGROV1 ovarian was 27.8 µM; with HOP-92 NSCLC it was 23.6 µM; in the experiment on M14 melanoma, 19.6 µM; with HT29 colon it was 44 µM; in the experiment on OVCAR-4 ovarian it was 43.3 µM; in the experiment with UO-31 renal it was 18.7 µM. Also, the TGI with IGROV1 ovarian was 79.6 µM; in the experiment on HOP-92 NSCLC it was 87.8 µM; in the experiment with M14 melanoma, 40.6 µM; with HT29 colon it was greater than 100 µM; in the experiment with OVCAR-4 ovarian it was greater than 100 µM; in the experiment on UO-31 renal, 55.5 µM.

As for `Cc1ccc(SC(CCC(Sc2ccc(C)cc2)Sc2ccc(C)cc2)Sc2ccc(C)cc2)cc1`, the TGI in the experiment with IGROV1 ovarian, in the experiment with HOP-92 NSCLC, in the experiment on M14 melanoma, in the experiment on RXF 393 renal, in the experiment on OVCAR-4 ovarian and in the experiment on UO-31 renal was greater than 100 µM throughout.

As for `Cc1nc(Nc2ccc(Cl)cc2)sc1C(=O)NNc1ccc([N+](=O)[O-])cc1[N+](=O)[O-]`, the concentration for total growth inhibition (TGI) amounted to 46.6 µM in the experiment on IGROV1 ovarian; 41.4 µM with HOP-92 NSCLC; 45.3 µM with M14 melanoma; 30.7 µM in the experiment with RXF 393 renal; 35.3 µM in the experiment on OVCAR-4 ovarian; 27.2 µM in the experiment with UO-31 renal.

With `c1cc(N(CCn2cccn2)CCn2cccn2)cc(N(CCn2cccn2)CCn2cccn2)c1`, the TGI with HOP-92 NSCLC, with M14 melanoma, in the experiment on RXF 393 renal, in the experiment on OVCAR-4 ovarian and in the experiment with UO-31 renal was greater than 100 µM in each case.

Regarding `CCOC(=O)C1N(S(=O)(=O)c2ccc(C)cc2)CCC12c1ccccc1N(C(C)=O)C2c1ccc(OC)c(OC)c1` (configuration not stated), the TGI in the experiment on IGROV1 ovarian, in the experiment with HOP-92 NSCLC, with M14 melanoma, with HT29 colon, with RXF 393 renal and with OVCAR-4 ovarian was greater than 100 µM each time. The compound further gave a TGI in the experiment with UO-31 renal greater than 100 µM.

In the case of `O=C1c2ccccc2C(Br)(Br)c2ccccc21`, the TGI was greater than 31.6 µM in the experiment on IGROV1 ovarian; greater than 100 µM with HOP-92 NSCLC; greater than 31.6 µM in the experiment with M14 melanoma; greater than 100 µM in the experiment on HT29 colon; greater than 31.6 µM with RXF 393 renal; greater than 31.6 µM in the experiment with OVCAR-4 ovarian. Further, the TGI in the experiment with UO-31 renal is greater than 31.6 µM.

On to `CC(=O)[CH-]C(C)=O.CC(=O)[CH-]C(C)=O.[CH2-]CCC.[CH2-]CCC.[Sn+4]`, for which the GI50 in the experiment with IGROV1 ovarian is 1.23 µM; with HOP-92 NSCLC it was 0.256 µM; in the experiment with M14 melanoma, 0.608 µM; with HT29 colon it was 1.28 µM; in the experiment with RXF 393 renal it was 0.0699 µM; in the experiment on OVCAR-4 ovarian, 1.31 µM. In addition, in the experiment on UO-31 renal, the GI50 is 1.03 µM. The TGI in the experiment on IGROV1 ovarian was found to be 2.66 µM; in the experiment on HOP-92 NSCLC it was 1.25 µM; in the experiment with M14 melanoma it was 1.86 µM; with HT29 colon, 2.59 µM; in the experiment on RXF 393 renal, 0.292 µM; with OVCAR-4 ovarian, 2.61 µM. Also, in the experiment with UO-31 renal, the TGI is 2.21 µM.

For `CC(=O)[O][Ga]([Cl])[O]C(C)=O`, the GI50 with IGROV1 ovarian, with HOP-92 NSCLC, in the experiment with M14 melanoma, with HT29 colon, with RXF 393 renal and in the experiment with OVCAR-4 ovarian was greater than 100 µM throughout. The GI50 in the experiment with UO-31 renal was greater than 100 µM. Moreover, the TGI in the experiment with IGROV1 ovarian, in the experiment with HOP-92 NSCLC, in the experiment with M14 melanoma, in the experiment with HT29 colon, in the experiment on RXF 393 renal and with OVCAR-4 ovarian was greater than 100 µM throughout. In the experiment on UO-31 renal, this compound yielded a TGI greater than 100 µM.

On to `CC(C)=CC(=O)C/C(=N\NC(N)=S)C(=O)Nc1ccc(Cl)cc1`, for which the TGI in the experiment on IGROV1 ovarian, in the experiment on M14 melanoma, with HT29 colon, with RXF 393 renal, with OVCAR-4 ovarian and with UO-31 renal was greater than 100 µM in each case.

The values are drawn from PubChem BioAssay (NCI).
